Here are results for 9 molecules from US20230181612A1, “AMINOGLYCOSIDE DERIVATIVES AND USES THEREOF IN TREATING GENETIC DISORDERS” (ELOXX PHARMACEUTICALS LTD., priority 2017, published 2023).

Entries after “also recorded” stand apart in the source; their conditions may differ.

For one data set, the target named is eukaryotic ribosome. The data set can be described thus: Eukaryotic in vitro translation inhibition (TNT T7 Quick Coupled Transcription/Translation System, luciferase). Format: biochemical. Particulars: for IC50: eukaryotic in vitro translation, 30 °C, 60 minutes. As for the experimental part:
The Set1 and Set2 compounds as described in Example 1 hereinabove were further tested for their ability to inhibit eukaryotic translation, as follows.
Eukaryotic in vitro translation inhibition was quantified using a TNT® T7 Quick Coupled
Transcription/Translation System with a luciferase T7 control DNA plasmid (Promega), according to the manufacturer protocol. Translation reactions (25 μL) containing variable concentrations of the tested aminoglycoside were incubated at 30° C. for 60 minutes, cooled on ice for 5 minutes, diluted with the dilution reagent and transferred into 96-well plates. In both prokaryotic and eukaryotic systems the luminescence was measured immediately after the addition of the Luciferase Assay Reagent ([…]; Promega), and the light emission was recorded with a FLx800 Fluorescence Microplate Reader (Biotek). The half-maximal inhibition concentration (IC50) values were obtained from fitting concentration-response curves to the data of at least two independent experiments by using Grafit 5 software.

A short description of data set [1]: Toxicity assay in cochlear explants (organ of Corti). Format: cell-based. Conditions: CBA/J, mouse, cochlear explants (organ of Corti), outer hair cells, concentration at 50% loss of hair cells; 72 hours incubation; read-out: Ototoxicity (Loss of outer hair cells), LC50^Coch. Here is the method:
(§1) The ototoxicity potential of Set1 and Set2 compounds was tested with cochlear explants as described, for example, in E. Shulman et al., J. Biol. Chem. 289(4), 2318-2330 (2014). The ototoxicity was measured as the value of AG concentration that is needed for 50% of hair loss from the outer hair cells of the cochlea, as follows.
(§2) The tested compounds were screened for toxicity to auditory hair cells in explants of the organ of Corti from CBA/J mice of postnatal day 2-3. The dissected tissue was placed on a collagen-coated incubation dish as a flat surface preparation in 1 ml of serum-free Basal Medium Eagle (Sigma Aldrich, St. Louis, Mo.) plus serum-free supplement (Invitrogen, Eugene, Oreg.), 1% bovine serum albumin, 2 mM glutamine, 5 mg glucose /ml and 10 units penicillin/ml. The explants were incubated for 5 hours (37° C., 5% CO2) and an additional 1 ml of culture medium was added to submerse the explants. After 48 hours of continued pre-incubation the culture medium was exchanged for new medium containing a specified concentration of the tested compound. Following another 72 hours of incubation, the explants were washed three times with PBS, fixed overnight in 4% (v/v) paraformaldehyde at 4° C., and then permeabilized for 30 minutes with 0.3% (v/v) Triton X-100 in PBS. The specimens were washed three times with PBS for 10 minutes at room temperature and incubated with rhodamine phalloidin (1:100; Life Technologies, Eugene, OR), either for 1 hour at room temperature or overnight at 4° C.
(§3) Following several rinses with PBS, the explants were mounted on microscope slides with Fluoro-Gel (Electron Microscopy Sciences, Hatfield, Pa.) and imaged on a Leica SP5 Confocal TCS Microscope (Leica, Wetzlar, Germany). Hair cells were identified by phalloidin-staining of their stereociliary bundles and circumferential F-actin rings. Their presence or absence was quantified using a 50x oil immersion objective on an epifluorescence Leitz Orthoplan microscope (Leica, Wetzlar, Germany), equipped with a calibrated scale (0.19 mm) superimposed on the field of view. All rows of hair cells were oriented longitudinally within each frame and counted from the apex of the cochlea to its base. Cell counts were entered in a computer program and compared to a normative database (KHRI Cytocochleogram, version 3.0.6, Kresge Hearing Research Institute, University of Michigan, Ann Arbor, Mich., USA) and are reported as percent hair cell loss averaged over the entire length of the explant.

The test system of another data set is outer hair cells. Described as above. Format: cell-based. Conditions: for morphology of hair cell epithelium: F-actin staining; for ototoxicity potential, in words: LC50^Coch in the millimolar range. As for the experimental part: as §1, §2, §3
Data set [2] deals with G542X nonsense mutation (CFTR, premature UGA G stop codon). The data set can be described thus: In vitro readthrough, dual luciferase reporter assay, G542X construct. Format: biochemical. Particulars: cystic fibrosis, in words, versus parent compound. Here is the method:
(§4) The Set1 and Set2 compounds as described in Example 1 hereinabove were tested for their readthrough activity in vitro by using a dual luciferase reporter assay system, as follows.
(§5) DNA fragments derived from PCDH15, CFTR, and IDUA cDNAs, including the tested nonsense mutation or the corresponding WT codon, and four to six upstream and downstream flanking codons, were created by annealing the following pairs of complementary oligonucleotides:
(§6) Fragments were inserted in frame into the polylinker of the p2Luc plasmid between either BamHI and Sad (p.R3X and p.R245X) or Salland Sad (all the rest) restriction sites. For the in vitro readthrough assays, the obtained plasmids, with addition of the tested aminoglycosides were transcribed and translated using the TNT Reticulocyte Lysate Quick Coupled Transcription/Translation System. Luciferase activity was determined after 90 minutes of incubation at 30° C., using the Dual Luciferase Reporter Assay System (Promega™). Stop codon readthrough was calculated as described in Grentzmann et al. RNA 4, 479-486 (1998).
(§7) Reporters carrying R3X nonsense mutation (a premature UGA C stop codon) related to Usher syndrome and G542X (a premature UGA G stop codon) related to Cystic fibrosis were used, and the obtained data is presented in FIGS. 7A-D.
A general note: A reporter such as luciferase makes a cellular process visible.

Data set [3] deals with R3X nonsense mutation (PCDH15, premature UGA C stop codon). The data set can be described thus: In vitro readthrough, dual luciferase reporter assay, R3X construct. Format: biochemical. Here is the method: as §4, §5, §6, §7
Data set [4] relates to CFTR S466X nonsense mutation. The data set can be described thus: Readthrough activity in cell-free dual luciferase assay, CFTR S466X. Format: biochemical, rabbit. The text has this: (§8) A dual luciferase plasmid carrying the Cystic fibrosis transmembrane conductance regulator (CFTR) mutation, S466X, or wild-type sequence, between Renilla and Firefly luciferase was transcribed and translated in vitro using rabbit reticulocytes (TNT mix) and then tested for functional activity of firefly and renilla luciferases. WT plasmids expressed both firefly and renilla luciferases while mutant plasmids expressed only the renilla luciferase due to the stop codon found in the inserted sequence. The readthrough assays were conducted for the tested compounds and controls by adding the compounds to the in vitro transcription/translation reaction mixture.
Read-through activity induced by NB74-MeS and NB124-MeS was calculated from the dual luciferase assay data using results from both the WT and mutant plasmids and the following equation: […]
(iii) Readthrough efficiency is presented as fold-increase in Firefly luciferase activity between NB74-MeS and NB124-MeS treated and non-treated mutant plasmid.
(iv) % readthrough of WT is calculated as the percentage of FF/Renilla of the mutant plasmid divided by the FF/Renilla of the WT plasmid.

In another data set the test system is ribosomes. The data set can be described thus: Translational inhibition (TI) in cell-free dual luciferase assay, Renilla of WT plasmid. Format: biochemical, rabbit.
Text: as §8
(i) Translational Inhibition (TI; The extent of the translational inhibition of ribosomes by NB74-MeS and NB124-MeS was calculated using the reduction in the Renilla bioluminescence values of WT plasmid by nonlinear regression curve fit on a plot of Relative Light Units (RLU) versus the log NB74-MeS and NB124-MeS molar concentration (Find ECanything analysis, GraphPad PRISM, version 7).

Another data set concerns human fibroblast cells. Conditions: cited from earlier work.

As to `C[C@@H](O)C1O[C@H](O[C@@H]2C(N)C[C@@H](NS(=O)(=O)c3ccccc3)C(O)C2O[C@@H]2O[C@H](CN)C(O)C2O)C(N)C(O)[C@@H]1O` (stereo partly drawn) [NB74-PhS, 6′-(R)-Methyl-5-O-(5″-amino-5″-deoxy-II-D-ribofuranose)-2′,3-amino-1-N-phenylsulfonamide paromamine], on eukaryotic ribosome, the IC50 turned out to be 160 ± 3.6 µM. In data set [1], the CC50 at 72 h was 176 µM.

Regarding `C[C@H](N)[C@H]1O[C@@H](O[C@@H]2C(O)[C@H](N)CC(N)[C@H]2O[C@H]2OC([C@@H](C)O)[C@@H](O)[C@H](O)C2N)C(O)[C@H]1O` (some centres unmarked) [NB124, reference compound], in data set [1], the CC50 at 72 h stood at 11.1 µM. In the data set with outer hair cells (15 μM, 72 hours), the “morphology of hair cell epithelium” value is on record as “almost complete”. For the same molecule, the “hair cell loss / damage” value with outer hair cells (15 μM, 72 hours, basal part of the cochlea) is on record as 80-90%.

On to `C[C@H](N)[C@H]1O[C@@H](OC2C(O)[C@H](NS(C)(=O)=O)CC(N)[C@H]2O[C@H]2OC([C@@H](C)O)[C@@H](O)C(O)C2N)C(O)C1O` (some centres unmarked) [NB124-MeS], for which the “readthrough activity, G542X mutation” value in data set [2] was “better activity”.

For the molecule `C[C@@H](O)C1O[C@H](O[C@@H]2C(N)C[C@@H](NS(C)(=O)=O)C(O)C2O[C@@H]2O[C@H](CN)C(O)C2O)C(N)C(O)[C@@H]1O` (stereo partly drawn) [NB74-MeS, 6′-(R)-Methyl-5-O-(5″-amino-5″-deoxy-11-D-ribofuranose)-2′,3-amino-1-N-methanesulfonamide paromamine], the “folds better readthrough activity in comparison to NB74” value in data set [3] is listed as “about 1.5 folds”. In data set [2], the “readthrough activity, G542X mutation” value is given as “better activity”. Moreover, the IC50 against eukaryotic ribosome was 8.35 µM; with ribosomes (read-out: TI50 (the source's name)) it was greater than 16 µM. Further, in the data set on eukaryotic ribosome (from IC50 values), the “folds more specific to the eukaryotic ribosome than NB74” value worked out at 1.7 folds. In data set [4] (S466X, relative to MUT control, 0-16 μM range), the “Fold Read-through at TI80” value came out at 9.9 Fold. Also, the “% Read-through at TI80” value in data set [4] (S466X, relative to WT) stood at 17%. In addition, the “suppression of cystic fibrosis S466X nonsense mutation, in words” value in data set [4] (cell-free assay, data not shown) is reported as “dose-response suppression”. The molecule also displayed a TI80 in the data set with ribosomes of 16 µM. Also, the CC50 at 72 h in data set [1] turned out to be 61.8 µM.

Molecule `C[C@@H](O)C1O[C@H](O[C@@H]2C(N)C[C@@H](N)C(O)[C@H]2O[C@@H]2O[C@H](CN)[C@H](O)C2O)C(N)[C@@H](O)[C@@H]1O` (some centres unmarked) [NB74, reference compound] came in with an IC50 at eukaryotic ribosome of 14.3 µM. The CC50 at 72 h in data set [1] amounted to 112 µM.

`C[C@@H](O)C1O[C@H](O[C@@H]2C(N)C[C@@H](NC(=O)c3ccccc3)C(O)C2O[C@@H]2O[C@H](CN)C(O)C2O)C(N)C(O)[C@@H]1O` (stereo partly drawn) [NB74-Bz, 6′-(R)-Methyl-5-O-(5″-amino-5″-deoxy-β-D-ribofuranose)-2′,3-amino-1-N-benzamide paromamine] gave an IC50 against eukaryotic ribosome of 755 µM. For the same molecule, the “folds less specific to the eukaryotic ribosome than NB74” value with eukaryotic ribosome (from IC50 values) turned out to be 54 folds.

With `CC(=O)N[C@@H]1CC(N)[C@@H](O[C@H]2OC([C@@H](C)O)[C@@H](O)C(O)C2N)C(O[C@@H]2O[C@H](CN)C(O)C2O)C1O` (stereo partly drawn) [NB74-Ac, 6′-(R)-Methyl-5-O-(5″-amino-5″-deoxy-β-D-ribofuranose)-2′,3-amino-1-N-acetamide paromamine], the IC50 at eukaryotic ribosome is 92.3 ± 9.9 µM. Moreover, the CC50 at 72 h in data set [1] came to 2400 µM. Moreover, the “ototoxicity potential, in words” value in the data set on outer hair cells was “incredibly low ototoxicity potential”. In the data set with outer hair cells (concentration at 50% loss of hair cells, 72 hours incubation, read-out: Ototoxicity (Loss of outer hair cells), LC50^Coch), the CC50 was found to be 2040 µM. In addition, the “ototoxicity relative to parent compound” value in the data set with outer hair cells (from LC50^Coch values) was “decreased in three orders of magnitude”.

In the case of `CNC1C(O)C(OC2C(N)CC(N)C(OC3OC(C(C)O)C(O)C(O)C3N)C2O)OCC1(C)O` (centres unmarked) [Compound G-418], the LD50 in the data set with human fibroblast cells was 0.04 mg/mL.

For the molecule `CC(=O)N[C@@H]1CC(N)[C@@H](O[C@H]2OC([C@@H](C)O)[C@@H](O)C(O)C2N)C(O[C@@H]2O[C@H]([C@H](C)N)C(O)C2O)C1O` (stereo partly drawn) [NB124-Ac, 6′-(R)-Methyl-5-O-(5-(R)-amino-5-deoxy-β-D-ribofuranose)-2′,3-amino-1-N-acetamide paromamine], the CC50 at 72 h in data set [1] is 1600 µM. Also, the “morphology of hair cell epithelium” value in the data set with outer hair cells (150 μM, 72 hours) was “remained normal and indistinguishable from the control; also recorded: essentially normal morphology”. Also, in the data set on outer hair cells, the “ototoxicity potential, in words” value is given as “incredibly low ototoxicity potential”.
